The values that follow come from patent US20030175270A1, “Methods of regulating cytokine receptor signaling” (priority 2002, published 2003).

In assay [1] the test system is JAK1. Put plainly: JAK1 Tyr 1022/Tyr 1023 phosphorylation in IL-3 stimulated BMMCs treated with Src inhibitor. The format is cell-based, mouse. Conditions: IL-3 stimulated cd45+/+ or cd45-/- BMMCs. As to the method:
(§1) Murine BMMCs, splenic B cells, thymocytes, peritoneal macrophages and Jurkat T-cell lines were stimulated with various cytokines. For immunoprecipitations, lysates were incubated with antibodies conjugated with agarose or Sepharose beads for 2 h at 4° C. Total cell lysates or immunoprecipitates were separated using SDS-polyacrylamide gel electrophoresis, transferred onto membranes and immunoblotted. COS cells were transfected using diethylaminoethyl-dextron transfection technique with wild-type or PTPase-dead CD45 (D1:C828s) as described [McKenney et al., J. Biol. Chem. 270:24949-24954, 1995].
(§2) Experiments were designed in order to assess whether Src kinases, known substrates of CD45, were deregulated during hyperactivation of the JAK-STAT pathway in cd45^−/− BMMCs. […] In addition, in IL-3 stimulated cd45^+/+ or cd45 ^−/− BMMCs, treatment with PP2 had no effect on the increased phosphorylation of the specific residues Tyr 1007 and TYR1008 in JAK2, Tyr 705 in STAT3, and Tyr 1022 and Tyr 1023 in JAK1 (see FIG. 2).

Assay [2] concerns STAT3. Put plainly: STAT3 Tyr 705 phosphorylation in IL-3 stimulated BMMCs treated with Src inhibitor. It is filed as cell-based, mouse. The following applies: IL-3 stimulated cd45+/+ or cd45-/- BMMCs. As to the method: as §1, §2
For assay [3], the system named is JAK2. The experiment in a line: JAK2 activation/phosphorylation in IL-3 stimulated BMMCs treated with Src inhibitor. The format is cell-based, mouse. The method, then:
as §1
For tyrosine phosphatase assays, immunoprecipitated Lyn, JAKs or STATs from lysates of 10^7 BMMCs (for Lyn, JAK1, JAK2, STAT3 and STAT5) or macrophages (for Tyk2) were washed in lysis buffer and phosphatase reaction buffer [Felberg et al., J. Biol. Chem. 273:17839-17845, 1998]. The amounts of Lyn and JAK2 in the immunoprecipitates used in FIG. 3A were 72 ng and 48 ng, respectively, as determined by silver staining. […] Tyrosine phosphorylation was monitored by immunoblotting with phosphotyrosine-specific antibodies. The extent of tyrosine phosphorylation and amount of substrates were determined by quantifying the intensities of the immunoblots with NIH Image 1.61 software. […]

In assay [4] the target is T1, rCD45 (Homo sapiens, UniProt P08575).
T1 construct: The rCD45 employed contained the intracellular dual PTPase domains with a relative molecular mas of 97,000 (Mr 97K); purchased Calbiochem
T1 sequence (P08575 599-1306 limits assumed): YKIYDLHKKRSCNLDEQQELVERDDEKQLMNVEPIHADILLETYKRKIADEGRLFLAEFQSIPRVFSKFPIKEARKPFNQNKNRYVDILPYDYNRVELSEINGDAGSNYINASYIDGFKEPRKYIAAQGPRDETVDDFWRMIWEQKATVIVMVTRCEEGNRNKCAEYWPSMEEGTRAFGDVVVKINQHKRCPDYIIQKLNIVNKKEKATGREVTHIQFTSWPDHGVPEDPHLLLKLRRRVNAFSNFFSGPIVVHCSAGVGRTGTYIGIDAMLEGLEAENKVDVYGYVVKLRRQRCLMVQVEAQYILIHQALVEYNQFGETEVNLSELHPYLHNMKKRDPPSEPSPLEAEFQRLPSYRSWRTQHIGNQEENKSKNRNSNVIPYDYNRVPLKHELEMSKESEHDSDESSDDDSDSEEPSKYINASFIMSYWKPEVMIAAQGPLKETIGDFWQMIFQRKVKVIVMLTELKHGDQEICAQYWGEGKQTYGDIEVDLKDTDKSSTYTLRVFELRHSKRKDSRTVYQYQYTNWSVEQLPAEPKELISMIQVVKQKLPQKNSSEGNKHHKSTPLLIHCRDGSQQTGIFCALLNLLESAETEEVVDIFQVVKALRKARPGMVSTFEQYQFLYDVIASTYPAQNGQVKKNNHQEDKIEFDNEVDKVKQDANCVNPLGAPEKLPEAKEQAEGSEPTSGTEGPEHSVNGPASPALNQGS
Put plainly: inhibition of rCD45-mediated JAK2 dephosphorylation. It is filed as biochemical. Conditions: 0.1 mM Na3 VO4, 10 U rCD45. As to the method:
For tyrosine phosphatase assays, immunoprecipitated Lyn, JAKs or STATs from lysates of 10^7 BMMCs (for Lyn, JAK1, JAK2, STAT3 and STAT5) or macrophages (for Tyk2) were washed in lysis buffer and phosphatase reaction buffer [Felberg et al., J. Biol. Chem. 273:17839-17845, 1998]. The amounts of Lyn and JAK2 in the immunoprecipitates used in FIG. 3A were 72 ng and 48 ng, respectively, as determined by silver staining. Recombinant CD45 was added to substrates in the presence or absence of 0.1 mM Na3 VO4 followed by incubation at 30° C. for 20 min. Tyrosine phosphorylation was monitored by immunoblotting with phosphotyrosine-specific antibodies. The extent of tyrosine phosphorylation and amount of substrates were determined by quantifying the intensities of the immunoblots with NIH Image 1.61 software. Kinase activity in anti-Lyn or anti-JAK immunoprecipitates was assessed by an in vitro kinase assay with Raytide (Oncogen Science) as a substrate or using authophosphorylation [Lui et al., Genes Dev. 13:786-791, 1999]. In vitro binding assays were performed as described [Felberg et al., J. Biol. Chem. 273:17839-17845, 1998], using 1 μg of soluble GST, GST-CD45-D2, or GST-PTPase-dead CD45 (D1:C828S). EMSAs were as described [Charurvedi et al., Mol. Cell. Biol. 17:3295-3304, 1997]. The sequences of the EMSA probes were: STAT3, 5′-[…]-3′ (SEQ ID NO: 1); STAT3 mutant, 5′-[…]-3′ (SEQ ID NO: 2). […]

Assay [5] relates to Coxsackievirus B3 (CVB3). Put plainly: CVB3 replication in Jurkat cells, plaque-forming assay. It is filed as cell-based, human. Conditions: IFN-α 1,000 units/ml pretreatment 4 h; cd45-deficient vs parental Jurkat cells. The method, then:
For Coxsackievirus infections in vitro, Jurkat cells were pretreated with IFN-α (1,000 units ml−^1) for 4 h and inoculated in triplicate with 3×10^5 CVB3 for 1 h at 37° C. Cells were then washed to remove excess IFN-α and excess CBV3 virus, and resuspended in RPMI medium containing 10% FBS. After 24 h, culture supernatants were analyzed for the presence of infectious CVB3 by using plaque-forming assays in HeLa cell monolayers. For CVB3 infections in vivo , the cd45mutation was backcrossed onto an A/J (H2^k/k ) background for five generations. A/J (H2^k/k) mice are highly susceptible to acute and chronic CVB3 infections. Four-week-old mice were inoculated intraperitoneally with 10^5 plaque-forming units of CVB3. For lethality scores, cd45−^/− (n=25) and cd45^± (n=22) littermate mice were monitored daily after infection. […] At defined time points, mice were sacrificed and organs were processed for histology. Sections from eight mice per group were stained with haematoxylin/eosin and Masson blue. In all experiments, the CVB3 strain Gauntt-Chow was used.
IFN-α and IFN-α R-regulated signaling are critical for replication of the picomavirus Coxsackievirus B3 (CVB3) in vitro and CVB3 infections in vivo [Kandolf et al., J. Mol. Cell. Cardiol. 17:167-181, 1985]. […] CVB3 titres were measured after infection of parental or cd45-deficient Jurkat cell lines. […]

With `CC(C)(C)n1nc(-c2ccc(Cl)cc2)c2c(N)ncnc21` [PP2], in assay [1], the “increased phosphorylation of Tyr 1022 and Tyr 1023 in JAK1” value is on record as “no effect”. Moreover, in assay [2], the “increased phosphorylation of Tyr 705 in STAT3” value is given as “no effect”. Moreover, the “increased phosphorylation of Tyr 1007 and Tyr 1008 in JAK2” value in assay [3] (IL-3 stimulated cd45+/+ or cd45-/- BMMCs) was “no effect”. The JAK2 activation result in assay [3] (cd45+/+ and cd45-/- BMMCs, addition of the inhibitor) was “unaffected”.

Consider `[Na+].[Na+].[Na+].[O]=[V]([O-])([O-])[O-]` [vanadate, Na3 VO4], for which the “effect on rCD45-mediated JAK2 dephosphorylation” value in assay [4] is given as “inhibits”; in assay [4] (listed as mandate), “blocked JAK2 dephosphorylation”.

IFN-α: in assay [5], the “suppression of CVB3 viral amplification” value was “suppressed viral amplification more efficiently in cd45-deficient cells than in parental Jurkat cells”.
